Values joined by “and” are separate entries in the source; they are usually repeats but may differ in a detail not shown here. Identical values can stand only once. Toxic doses and inconclusive results are not listed. Cut-off read from the data, not from the text of the source: active = T/C of 150% or more; inactive = T/C below 125%. Square brackets hold non-standard residues; d marks the D form. Peptide text beside a SMILES is read from it. * marks the point of attachment. ξ: configuration not given here. Cbz = O=C(OCc1ccccc1)*; ξL = CC(C)CC(N)C(=O)O
Test system: L1210 leukemia ip in BDF1 mice, survival T/C
Test: NCI In Vivo Anticancer Drug Screen. Data for tumor model L1210 Leukemia (intraperitoneal) in B6D2F1 (BDF1) mice
Settings: endpoint: mean survival time, higher = longer survival
How it was run: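 In this screen, tumor-bearing mice given compound are compared to those given vehicle, and their survival values are reported as a treated-to-control quotient.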

[1] = dose: 100.0 mg/kg/injection, schedule: Q01DX001 (ip), vehicle: saline with Tween-80
[2] = dose: 100.0 mg/kg/injection, schedule: Q04DX002 (ip), vehicle: Klucel (hydroxypropylcellulose) (HPC)
[3] = dose: 100.0 mg/kg/injection, schedule: Q01DX001 (ip), vehicle: Klucel (hydroxypropylcellulose) (HPC)
[4] = dose: 100.0 mg/kg/injection, schedule: Q01DX009 (ip), vehicle: Klucel (hydroxypropylcellulose) (HPC)
[5] = dose: 100.0 mg/kg/injection, schedule: Q04DX003 (ip), vehicle: Klucel (hydroxypropylcellulose) (HPC)
[6] = dose: 200.0 mg/kg/injection, schedule: Q01DX001 (ip), vehicle: Klucel (hydroxypropylcellulose) (HPC)
[7] = dose: 200.0 mg/kg/injection, schedule: Q01DX009 (ip), vehicle: Klucel (hydroxypropylcellulose) (HPC)
[8] = dose: 200.0 mg/kg/injection, schedule: Q04DX002 (ip), vehicle: Klucel (hydroxypropylcellulose) (HPC)
[9] = dose: 200.0 mg/kg/injection, schedule: Q04DX003 (ip), vehicle: Klucel (hydroxypropylcellulose) (HPC)
[10] = dose: 400.0 mg/kg/injection, schedule: Q01DX001 (ip), vehicle: Klucel (hydroxypropylcellulose) (HPC)
[11] = dose: 400.0 mg/kg/injection, schedule: Q01DX009 (ip), vehicle: Klucel (hydroxypropylcellulose) (HPC)
[12] = dose: 400.0 mg/kg/injection, schedule: Q04DX002 (ip), vehicle: Klucel (hydroxypropylcellulose) (HPC)
[13] = dose: 400.0 mg/kg/injection, schedule: Q04DX003 (ip), vehicle: Klucel (hydroxypropylcellulose) (HPC)
[14] = dose: 50.0 mg/kg/injection, schedule: Q04DX003 (ip), vehicle: saline
[15] = dose: 100.0 mg/kg/injection, schedule: Q04DX003 (ip), vehicle: saline

Measured: T/C

O=C1C(=C(C(F)(F)Cl)C(F)(F)Cl)C2CCC1C2 (configuration not stated)
inactive: dose: 6.25 mg/kg/injection, schedule: Q01DX009 (ip), vehicle: saline with Tween-80 95 % of control | dose: 12.0 mg/kg/injection, schedule: Q01DX001 (ip), vehicle: saline with Tween-80 104 % of control | dose: 12.5 mg/kg/injection, schedule: Q01DX009 (ip), vehicle: saline with Tween-80 95 % of control | dose: 25.0 mg/kg/injection, schedule: Q01DX001 (ip), vehicle: saline with Tween-80 100 % of control | dose: 25.0 mg/kg/injection, schedule: Q01DX009 (ip), vehicle: saline with Tween-80 102 % of control and 92 % of control | dose: 50.0 mg/kg/injection, schedule: Q01DX001 (ip), vehicle: saline with Tween-80 100 % of control | dose: 50.0 mg/kg/injection, schedule: Q01DX009 (ip), vehicle: saline with Tween-80 107 % of control | [1] 91 % of control

NNC(=O)CNc1ccccc1Br
inactive: dose: 50.0 mg/kg/injection, schedule: Q04DX002 (ip), vehicle: Klucel (hydroxypropylcellulose) (HPC) 106 % of control | [2] 105 % of control and 110 % of control

CCOc1ccccc1-n1c(-c2ccc([N+](=O)[O-])cc2)csc1=NC(=O)c1cccc([N+](=O)[O-])c1
inactive: [3] 101 % of control | [4] 96 % of control and 100 % of control and 106 % of control | [2] 94 % of control and 98 % of control | [5] 101 % of control | [6] 101 % of control | [7] 93 % of control (2×) and 95 % of control | [8] 97 % of control and 98 % of control | [9] 95 % of control | [10] 98 % of control | [11] 95 % of control and 97 % of control (2×) | [12] 96 % of control and 97 % of control | [13] 93 % of control

CCc1ccccc1NC(=O)Nc1ccccc1
inactive: [4] 94 % of control | [5] 103 % of control | [7] 98 % of control | [9] 94 % of control | [11] 105 % of control | [13] 95 % of control

O=Cc1ccc(/C=C2\C=Cc3ccccc32)cc1
inactive: dose: 100.0 mg/kg/injection, schedule: Q04DX003 (ip), vehicle: saline with Tween-80 93 % of control | dose: 200.0 mg/kg/injection, schedule: Q04DX003 (ip), vehicle: saline with Tween-80 91 % of control | dose: 400.0 mg/kg/injection, schedule: Q04DX003 (ip), vehicle: saline with Tween-80 92 % of control

O=C(O)CC[S-].[Ag+]
inactive: dose: 50.0 mg/kg/injection, schedule: Q04DX003 (ip), vehicle: other 94 % of control | dose: 75.0 mg/kg/injection, schedule: Q01DX009 (ip), vehicle: other 98 % of control | dose: 100.0 mg/kg/injection, schedule: Q01DX001 (ip), vehicle: other 91 % of control | dose: 100.0 mg/kg/injection, schedule: Q04DX003 (ip), vehicle: other 89 % of control | dose: 150.0 mg/kg/injection, schedule: Q01DX009 (ip), vehicle: other 98 % of control | dose: 200.0 mg/kg/injection, schedule: Q01DX001 (ip), vehicle: other 91 % of control | dose: 200.0 mg/kg/injection, schedule: Q04DX003 (ip), vehicle: other 91 % of control | dose: 300.0 mg/kg/injection, schedule: Q01DX009 (ip), vehicle: other 109 % of control

Cc1c(Cl)cccc1NC(=S)Nc1ccccc1
inactive: [2] 100 % of control | [8] 95 % of control | [12] 95 % of control

COC(=O)c1ccccc1C1=C(O)C(=O)C(c2ccccc2C(=O)OC)=C(O)C1=O
inactive: [4] 97 % of control | [7] 98 % of control

NC(N)=NCC1COc2ccccc2O1 (configuration not stated)
inactive: dose: 25.0 mg/kg/injection, schedule: Q01DX001 (ip), vehicle: carboxymethylcellulose (CMC) 103 % of control | dose: 50.0 mg/kg/injection, schedule: Q01DX001 (ip), vehicle: carboxymethylcellulose (CMC) 106 % of control | dose: 100.0 mg/kg/injection, schedule: Q01DX001 (ip), vehicle: carboxymethylcellulose (CMC) 108 % of control

NC(=O)C(O)(c1ccccc1)c1ccccc1
inactive: [1] 100 % of control | dose: 200.0 mg/kg/injection, schedule: Q01DX001 (ip), vehicle: saline with Tween-80 97 % of control | dose: 400.0 mg/kg/injection, schedule: Q01DX001 (ip), vehicle: saline with Tween-80 101 % of control

Nc1ccc(S(=O)(=O)NCc2nccs2)cc1
inactive: dose: 5.0 mg/kg/injection, schedule: Q01DX001 (ip), vehicle: saline 102 % of control | dose: 10.0 mg/kg/injection, schedule: Q01DX001 (ip), vehicle: saline 100 % of control | dose: 20.0 mg/kg/injection, schedule: Q01DX001 (ip), vehicle: saline 100 % of control | dose: 40.0 mg/kg/injection, schedule: Q01DX001 (ip), vehicle: saline 102 % of control | dose: 80.0 mg/kg/injection, schedule: Q01DX001 (ip), vehicle: saline 100 % of control

COC(=O)CNC(=O)C(CC(C)C)NC(=O)OCc1ccccc1 (configuration not stated) (Cbz-[ξL]-Gly-OMe)
inactive: dose: 50.0 mg/kg/injection, schedule: Q01DX009 (ip), vehicle: saline 98 % of control | [14] 94 % of control | dose: 100.0 mg/kg/injection, schedule: Q01DX001 (ip), vehicle: saline 97 % of control | dose: 100.0 mg/kg/injection, schedule: Q01DX009 (ip), vehicle: saline 100 % of control | [15] 91 % of control | dose: 200.0 mg/kg/injection, schedule: Q01DX001 (ip), vehicle: saline 94 % of control | dose: 200.0 mg/kg/injection, schedule: Q01DX009 (ip), vehicle: saline 98 % of control | dose: 200.0 mg/kg/injection, schedule: Q04DX003 (ip), vehicle: saline 96 % of control

CN(C)C(=O)Sc1ccc(C(C)(C)C)cc1
inactive: [3] 95 % of control | [6] 90 % of control | [10] 112 % of control

c1ccc(N=C2C3CCN(CC3)C2C(c2ccccc2)c2ccccc2)cc1 (configuration not stated)
inactive: [5] 97 % of control | [9] 94 % of control | [13] 95 % of control

CC[N+](C)(CC)CCOc1cc(C)ccc1C(C)C
inactive: dose: 25.0 mg/kg/injection, schedule: Q04DX003 (ip), vehicle: saline 104 % of control | [14] 98 % of control | [15] 93 % of control and 98 % of control
